Assay [1] deals with Mink lung epithelial cells (Mv 1 Lu). Description: Mv 1 Lu growth inhibition assay, preincubation with peptides followed by a suboptimal quantity of TGF-β1. In kind it is cell-based. To be noted: 4 h preincubation with peptide, then suboptimal 3.3 x 10^-3 µM TGF-β1, 5 days of incubation. As to the method: (§1) An assay for TGF-β1 biological activity, bases on Mink lung epithelial cells (Mv 1 Lu), was used for analysis of the biological activity of peptides derived from the human TGF-β1 primary sequence. This assay is based on growth inhibition of Mv 1 Lu cells in presence of TGF-β1. Inhihition of Mv 1 Lu growth is quantified by acid phosphatase activity as a marker for cell growth.
(§2) Mink lung epithelial cells (Mv 1 Lu) were plated in 96-well tissue culture plates (Costar, Cambridge, MA) at 100 cells/well in 100 µl Eagle's MEM supplemented with 20IE/ml penicillin, 1 mg/ml streptomycin, 0.4 mM L-glutamine, 10 mM HEPES and 10% FCS (HyClone, Logan, UT). Plates were incubated at 37°C and 5% CO2 in a humidified incubator for 1.5 h to allow cell attachment. After cell attachment peptides were added in a volume of 50 µl in Eagle's MEM supplemented with 20IE/ml penicillin, 1 mg/ml streptomycin, 0.4 mM L-glutamine, 10 mM HEPES and 10% FCS and titrated with eight threefold dilutions of peptide. The cells were subsequently incubated for 5 days at 37°C and 5% CO2 in a humidified incubator. After incubation cell growth was monitored using acid phosphatase activity as a marker: The plates were washed twice with 200 µl PBS per well and 100 µl of substrate solution (0.1 M sodium acetate, 0,1% Triton X-100, 3.7 mg/ml p-nitrophenyl phosphate, pH 5.5) were added to each well. The plates were then incubated for 1.5 h at 37°C, after which 25 µl of 0.4 M NaOH were added to each well. Acid phosphatase activity was detected by measuring the OD of the substrate solution using an microplate reader at 405 nm.
In this example Mv 1 Lu cells were preincubated with TGF-β1 derived peptides which were titrated in eight threefold dilutions, starting with a peptide quantity of 10-100 µg per well. After 4 h of preincubation a suboptimal quantity of 3.3 x 10^-3 µM TGF-β1. The TGF-β1 (R&D systems, M1) Porcine TGF-β1 is 100% homologue to humam TGF-β1 (Roberts et al. in Handbook of Experimental Pharmacology, Editors Sporn, M.B.; Robers A.B.; Springer Verlag Heidelberg (1990), 95, 419) was added. After 5 days of incubation the wells were tested for acid phosphatase activity.

Assay [2] shares this test system. Description: Mv 1 Lu growth inhibition assay for agonistic TGF activity (peptides alone, acid phosphatase readout). In kind it is cell-based. The note with it: peptide alone, 5 days of incubation, acid phosphatase activity as marker for cell growth. As to the method:
as §1, §2
In this example, all peptides comprising 12 amino acids prepared as described under the head "Peptide synthesis", were tested in the Mv 1 Lu growth inhibition assay. In this assay peptides were titrated in eight threefold dilutions, starting with a peptide quantity of 10-100 µg per well. After 5 days of incubation the wells were tested for acid phosphatase activity.

The results in this text go back to EP0877031A1, “TGF-Beta1 derived peptides mimicking the activity of transforming growth factor-Beta1” (INSTITUUT VOOR DIERHOUDERIJ EN DIERGEZONDHEID (ID-DLO), priority 1997, dated 1998).

For the sequence KNCCVRQLYIDF, in assay [1], the “enhanced inhibition of the growth of mink lung epithelial cells when combined with TGF-β1 (synergistic effect)” value (from here on “enhanced inhibition”) was “enhanced inhibition of the growth of the mink lung epithelial cells”.
Take EKNCCVRQLYID: the “growth inhibition of mink lung epithelial cells (TGF agonist activity)” value (from here on “growth inhibition”) in assay [2] is recorded as “inhibited the growth of mink lung epithelial cells in a similar way as TGF-β1 does”.
LSNMIVRSCKCS: the “growth inhibition” value in assay [2] is “inhibited the growth of mink lung epithelial cells in a similar way as TGF-β1 does”. Also, the “enhanced inhibition” value in assay [1] was “enhanced inhibition of the growth of the mink lung epithelial cells”.
On to CCVRQLYIDFRK, for which the “growth inhibition” value in assay [2] is “inhibited the growth of mink lung epithelial cells in a similar way as TGF-β1 does”. For the same sequence, in assay [1], the “enhanced inhibition” value is reported as “enhanced inhibition of the growth of the mink lung epithelial cells”.
QHNPGASAAPCC: in assay [1], the “enhanced inhibition” value is “enhanced inhibition of the growth of the mink lung epithelial cells”.
Turning to FSSTEKNCCVRQ, the “growth inhibition” value in assay [2] is “inhibited the growth of mink lung epithelial cells in a similar way as TGF-β1 does”.
In the case of HNPGASAAPCCV, in assay [1], the “enhanced inhibition” value is reported as “enhanced inhibition of the growth of the mink lung epithelial cells”.
Turning to CFSSTEKNCCVR, the “growth inhibition” value in assay [2] is “inhibited the growth of mink lung epithelial cells in a similar way as TGF-β1 does”.
As for NCCVRQLYIDFR, in assay [2], the “growth inhibition” value is recorded as “inhibited the growth of mink lung epithelial cells in a similar way as TGF-β1 does”. Further, the “enhanced inhibition” value in assay [1] is given as “enhanced inhibition of the growth of the mink lung epithelial cells”.
